# Source: article PMC12693701, “Glucosinolate-Derived Metabolites from Barbarea vulgaris (Brassicaceae): Evaluation of Antimicrobial, Antioxidant, and Anti-Inflammatory Potentials” (Molecules, 2025)
# Where two headings read alike, the source gives them in different places.
# Tests used:
# [1] = test system: E. coli ATCC 25922; test: Microdilution MIC/MMC with resazurin; assay type: cell-based, Escherichia coli; conditions: for MIC: Escherichia coli, ATCC25922
# Procedure: (§1) The antimicrobial activity was evaluated against 15 microorganisms. This included 11 bacterial strains: four standard strains (Staphylococcus aureus ATCC 25923, Bacillus subtilis ATCC 6633, Bacillus pumilus NCTC 8241, and Escherichia coli ATCC 25922) and six clinical or environmental isolates (Staphylococcus aureus, Escherichia coli, Bacillus cereus, Proteus mirabilis, Salmonella enterica, and Klebsiella pneumoniae). One probiotic strain, Bifidobacterium animalis subsp. lactis was tested. In addition, four fungal strains, Candida albicans ATCC 10231, Trichoderma viride ATCC 13233, Aspergillus flavus ATCC 9170, and Fusarium solani ATCC 11712 were tested. The bacterial strains were kept in glycerol stock at −80 °C and the fungal strains in paraffin oil stock at 4 °C.
# (§2) Bacterial and yeast suspensions were prepared using the direct colony method, as previously described by Andrews. The turbidity of the initial suspensions was adjusted to match the 0.5 McFarland standard using a densitometer (Biosan, Riga, Latvia), corresponding to approximately 10^8 colony-forming units (CFU)/mL for bacterial cells and 10^6 CFU/mL for yeast cells. Subsequently, 1:100 dilutions of the initial suspensions were prepared in sterile 0.85% saline. Fungal spore suspensions were obtained by gently harvesting spores from agar slopes containing mature mycelial growth. The collected spore suspensions were then diluted 1:1000 in sterile 0.85% saline prior to use.
# (§3) Antimicrobial activity was evaluated by determining the minimum inhibitory concentration (MIC) and minimum microbicidal concentration (MMC) using the microdilution plate method with resazurin as an indicator [28]. In the 96-well plates, 100 μL of Mueller–Hinton broth (Torlak, Belgrade, Serbia) for bacterial testing and Sabouraud broth (Torlak, Belgrade, Serbia) for fungal testing were dispensed into each well. The compounds under investigation were initially dissolved in a 10% dimethyl sulfoxide (DMSO) solution, followed by dilution in sterile distilled water, resulting in a working compound solution containing 1% DMSO. A 100 μL aliquot of the stock solution of the tested compound was added to the first row, and twofold serial dilutions were then carried out using a multichannel pipette. The resulting concentration range was from 5 to 0.039 mg/mL. The inoculated microtiter plates were incubated at 37 °C for 24 h for bacteria, at 28 °C for 48 h for yeasts, and at 28 °C for 72 h for molds.
# (§4) Each test also included growth control and sterility control. All tests were conducted in duplicate. MIC was defined as the lowest concentration of tested compounds that prevented resazurin color change from blue to pink. For molds, MIC values of the tested compound were determined as the lowest concentration that inhibited visible mycelia growth. MMC was determined by inoculation of the nutrient agar medium by plating […] of samples from wells, where no indicator color change was recorded. At the end of the incubation period, the lowest concentration with no growth (no colony) was defined as MMC.
# (§5) Doxycycline, ampicillin and amphotericin B (- Sigma-Aldrich, St. Louis, MO, USA) and ketoconazole (Hemofarm A.D., Vršac, Serbia) were dissolved in a nutrient liquid medium. Doxycycline is a broad-spectrum antibiotic effective against both aerobic and anaerobic Gram-positive and Gram-negative bacteria. Ampicillin, a beta-lactam antibiotic, primarily targets Gram-positive bacteria but also some Gram-negative strains. Amphotericin B is an antifungal drug often used for serious systemic fungal infections and is one of the effective treatments for fungal infections caused by Aspergillus sp. Ketoconazole is an antifungal agent used to inhibit the growth of Candida species.
# [2] = test system: S. aureus; test: Microdilution MIC/MMC with resazurin; assay type: cell-based, Staphylococcus aureus; conditions: for MIC: Staphylococcus aureus
# Procedure: as §1, §2, §3, §4, §5
# [3] = test system: S. aureus ATCC 25923; test: Microdilution MIC/MMC with resazurin; assay type: cell-based, Staphylococcus aureus; conditions: for MIC: Staphylococcus aureus, ATCC25923
# Procedure: as §1, §2, §3, §4, §5
# [4] = test system: tested bacterial strains; test: Microdilution MIC, summary over tested bacterial strains; assay type: cell-based; conditions: for MIC values, range over bacterial strains: all tested bacteria; for MIC: read-out: MIC against E. coli ATCC 25922 and S. aureus ATCC 25923 (abstract)
# Procedure: as §1, §2, §3, §4
# [5] = test system: B. pumilus NCTC 8241; test: Microdilution MIC/MMC with resazurin; assay type: cell-based, Bacillus pumilus; conditions: for MIC: Bacillus pumilus, NCTC8241
# Procedure: as §1, §2, §3, §4, §5
# [6] = ABTS radical scavenging assay; conditions: mean ± SD
# Procedure: The ABTS radical cation solution was prepared following the previously described protocol. Different concentrations of the analyzed samples were prepared in DMSO. The test samples were prepared following the specified procedure: 20 µL of sample was combined with 980 µL of methanol, followed by the addition of 1000 µL of ABTS solution. Absorbance was measured at 734 nm. All measurements were performed in triplicate.
# [7] = test system: T. viride ATCC 13233; test: Microdilution MIC/MMC; assay type: cell-based, Trichoderma viride
# Procedure: as §1, §2, §3, §4, §5
# [8] = test system: P. mirabilis; test: Inhibition of biofilm formation (crystal violet); assay type: cell-based, Proteus mirabilis; conditions: for BIC50: biofilm coverage reduced by 50%; for BIC90: biofilm coverage reduced by 90%
# Procedure: The procedure involved preparing 96-well microtiter plates (Sarstedt, Nümbrecht, Germany) by adding 100 μL of Mueller-Hinton nutrient broth to each well. A 10 μL aliquot of bacterial suspension (adjusted to 1.0 McFarland for Gram-positive bacteria and 0.5 McFarland for Gram-negative bacteria) was added to the wells. The plates were then incubated at 37 °C for 48 h to allow biofilm formation. After incubation, the wells were washed twice with 200 μL of sterile 0.85% saline to remove non-adherent and weakly adherent cells. Biofilms formed by the adherent bacteria were fixed with 100 μL of methanol until fully evaporated. The biofilms were then stained using 0.1% (w/v) crystal violet (Fluka Chemie AG, Buchs, Switzerland) and left at room temperature for 20 min. After staining, excess dye was washed off with deionized water, followed by 96% ethanol. Controls included wells containing only nutrient broth to check for sterility and nonspecific binding. Background absorbance from the sterile medium, fixative, and dye was subtracted from the OD readings of the test samples. All experiments were performed in triplicate.
# To assess the inhibition of biofilm formation, 96-well microtiter plates (Sarstedt, Nümbrecht, Germany) were prepared by dispensing 100 μL of Mueller-Hinton broth into each well. From stock solutions of tested compounds (at 10 mg/mL), 100 μL was added to the first row of the plate, followed by twofold serial dilutions (from 5 to 0.039 mg/mL) using a multichannel pipette (Eppendorf AG, Hamburg, Germany). Subsequently, 10 μL of fresh bacterial suspension (adjusted to 0.5 McFarland for Gram-negative and 1.0 McFarland for Gram-positive bacteria) was added to each well. The plates were incubated at 37 °C for 48 h. After incubation, the contents of the wells were carefully removed by tapping, and the remainder of the experiment was conducted following the procedure described above.
# Controls consisted of wells containing only broth or broth with the tested compounds to assess sterility and nonspecific binding. Background absorbance was subtracted from test readings as described earlier. All experiments were performed in triplicate, and tetracycline (Sigma-Aldrich, St. Louis, MO, USA), dissolved in nutrient broth, was used as a reference compound.
# [9] = E. coli ATCC 25922, compounds 1–8
# [10] = E. coli ATCC 25922, compounds 1–8, read-out: MIC
# [11] = S. aureus isolate, compounds 1–8
# [12] = S. aureus isolate, compounds 1–8, read-out: MIC
# [13] = S. aureus ATCC 25923, compounds 1–8
# [14] = S. aureus ATCC 25923, compounds 1–8, read-out: MIC
# [15] = B. pumilus NCTC 8241, compounds 1–8
# [16] = B. pumilus NCTC 8241, compounds 1–8, read-out: MIC
# [17] = T. viride ATCC 13233, compounds 1–8
# [18] = Trichoderma viride, ATCC13233, T. viride ATCC 13233, compounds 1–8, read-out: MIC
Structure (SMILES),"MMC [1, 9] [mg/mL]","MIC [1, 10] [µg/mL]","MMC [2, 11] [mg/mL]","MIC [2, 12] [µg/mL]","MMC [3, 13] [mg/mL]","MIC [3, 14] [µg/mL]","MMC [5, 15] [mg/mL]","MIC [5, 16] [µg/mL]",ABTS Scavenging Ability ([6]; 25 µM) [%],ABTS Scavenging Ability ([6]; 50 µM) [%],ABTS Scavenging Ability ([6]; 100 µM) [%],"MMC [7, 17] [mg/mL]","MIC [7, 18] [µg/mL]",BIC50 [8] [µg/mL],BIC90 [8] [µg/mL],further results
"CSC(=S)NCCc1ccccc1 [Compound 1, Methyl phenethylcarbamodithioate]",1.25,1250,5,5000,5,5000,2.5,1250,1.7 ± 1.1,2.2 ± 1.2,2.6 ± 0.8,1.25,625,–,–,"MIC values, range over bacterial strains [4]: 1.25 to 5 mg/mL"
"S=C1NCC(c2ccccc2)O1 (racemic) [Compound 4, rac-5-Phenyl-1,3-oxazolidine-2-thione]",5,2500,1.25,1250,2.5,1250,2.5,1250,0.9 ± 0.1,1.6 ± 0.9,2.5 ± 0.3,2.5,2500,3170,>5000,"MIC values, range over bacterial strains [4]: 1.25 to 5 mg/mL"
"Oc1ccc(CCN=C=S)cc1 [Compound 8, 2-(4-hydroxyphenyl)ethyl isothiocyanate]",0.312,–,0.312,–,0.625,–,0.156,–,2.9 ± 1.3,6.8 ± 1.1,11.9 ± 0.8,<0.039,–,1428,2400,"MIC [1]: 78 µg/mL; MIC [2]: 78 µg/mL; MIC [3]: 156 µg/mL; MIC [4]: 312 to 1250 µg/mL; MIC [5]: 156 µg/mL; MIC [7, 17]: <39 µg/mL; MIC ([7]; Trichoderma viride, ATCC13233): < 39 µg/mL"
"S=C1NC[C@H](c2ccccc2)O1 [Compound 5, (S)-5-phenyl-1,3-oxazolidine-2-thione]",5,5000,>5,> 5000,>5,5000,5,2500,6.6 ± 0.2,12.3 ± 0.8,19.1 ± 0.6,5,5000,–,–,–
"O=C1NCC(c2ccccc2)O1 (stereo not drawn) [Compound 7, 5-Phenyl-1,3-oxazolidin-2-one]",2.5,1250,5,2500,5,5000,5,5000,1.3 ± 0.1,2.7 ± 1.0,3.9 ± 0.4,2.5,1250,3100,4754,–
"O=C1NCC(c2ccccc2)S1 (stereo not drawn) [Compound 6, 5-phenyl-1,3-thiazolidin-2-one]",>5,> 5000,>5,> 5000,>5,> 5000,>5,> 5000,2.6 ± 0.7,3.9 ± 1.2,5.1 ± 0.9,>5,> 5000,–,–,antibacterial activity (in words) ([4]; tested concentrations 5 to 0.039 mg/mL): no detectable antibacterial activity
"CSC(=S)NCCc1ccc(O)cc1 [Compound 2, methyl-4-hydroxyphenylethyl dithiocarbamate]",0.312,312,0.312,312,0.156,156,0.156,156,7.6 ± 1.0,13.4± 0.9,13.4 ± 0.8,0.312,156,1158,4500,MIC [4]: 312 to 1250 µg/mL
"O=C(O)C1CSC(=S)N1 (stereo not drawn) [Compound 3, 2-Thioxothiazolidine-4-carboxylic Acid]",1.25,625,0.312,156,0.625,625,0.625,625,1.2 ± 0.3,1.9 ± 1.2,2.6 ± 0.7,5,2500,3420,>5000,–
